# In patent US9122153B2, “Cyclic compound, method for producing same, composition, and method for forming resist pattern” (MITSUBISHI GAS CHEMICAL COMPANY, INC., priority 2011, dated 2015):
# Experiment: Solubility test of compound in safe solvent
# Type: physicochemical
# Conditions: 23° C., ultrasonic wave 30 minutes, visually evaluated; for CHN (dissolution amount): cyclohexanone; for PGME (dissolution amount): propylene glycol monomethyl ether
# Description: The compound was precisely weighed in a test tube at 23° C.; and the target solvent was added to the compound so that a predetermined concentration of the liquid to be obtained is set; a ultrasonic wave was applied to the liquid in an ultrasonic washing machine for 30 minutes; and the state of the resulting liquid was visually evaluated.
# The solubility of the compound in propylene glycol monomethyl ether (PGME) and cyclohexanone (CHN) was evaluated according to the following standard using the dissolution amount in each solvent. • A: 5.0% by weight≦dissolution amount • B: 3.0% by weight≦dissolution amount<5.0% by weight • C: dissolution amount<3.0% by weight • (2) Resolution, Shape, Roughness (LER), and Sensitivity of Resist Pattern
# The dissolution amounts of compounds obtained in the above Synthesis Examples 1 and 2 and Synthesis Comparative Example 1 in propylene glycol monomethyl ether (PGME) and cyclohexanone (CHN) were evaluated using the above evaluation method and standard.
Structure (SMILES),CHN (dissolution amount),PGME (dissolution amount)
"Oc1cc(O)c2cc1C(c1ccc(C3CCCCC3)cc1)c1cc(c(O)cc1O)C(c1ccc(C3CCCCC3)cc1)c1cc(c(O)cc1O)C(c1ccc(C3CCCCC3)cc1)c1cc(c(O)cc1O)C2c1ccc(C2CCCCC2)cc1 (stereo not drawn) [CR-1A, reference compound]",C (dissolution amount<3.0% by weight),B (3.0% by weight≦dissolution amount<5.0% by weight)
Oc1cc(O)c2cc1C(c1ccc(I)cc1)c1cc(c(O)cc1O)C(c1ccc(I)cc1)c1cc(c(O)cc1O)C(c1ccc(I)cc1)c1cc(c(O)cc1O)C2c1ccc(I)cc1 (stereo not drawn) [CR-1],A (5.0% by weight≦dissolution amount),A (5.0% by weight≦dissolution amount)
Oc1cc(O)c2cc1C(c1ccc(CI)cc1)c1cc(c(O)cc1O)C(c1ccc(CI)cc1)c1cc(c(O)cc1O)C(c1ccc(CI)cc1)c1cc(c(O)cc1O)C2c1ccc(CI)cc1 (stereo not drawn) [CR-2],A (5.0% by weight≦dissolution amount),A (5.0% by weight≦dissolution amount)
